Reference: patent US10344049B2, “Substituted steroids for the treatment of cancer” (AQUAVAN TECHNOLOGY CO., LTD., priority 2017, dated 2019)
Like-named read-outs stand apart in the source and are kept apart here.

Legend:
Format in all cases: cell-based
[1] = system: human Glioblastoma cells U87-MG; assay: Cell viability test (Resazurin), U87-MG cells; design: evaluation of ability to inhibit cell growth activity (IC50): scale not given here
Protocol: (§1) Cell viability was determined with Resazurin (at a final concentration of 25 μg/mL).

[2] = system: human breast cancer cells MDA-MB-468; assay: Cell viability test (Resazurin), MDA-MB-468 cells
Protocol: as §1

[3] = system: human breast cancer cells MDA-MB-231; assay: Cell viability test (Resazurin), MDA-MB-231 cells; design: evaluation of ability to inhibit cell growth activity (IC50): scale not given here
Protocol: as §1

[4] = system: human liver cancer cells Mahlavu; assay: Cell viability test (Resazurin), Mahlavu cells
Protocol: as §1

[5] = system: human leukemia cells U937; assay: Cell viability test (Resazurin), U937 cells
Protocol: as §1

[6] = system: human colorectal cancer cells SW-480; assay: Cell viability test (Resazurin), SW480 cells
Protocol: as §1

[7] = system: African green monkey kidney cells Vero; assay: Cell viability test (Resazurin), Vero cells
Protocol: as §1

[8] = system: human lung cancer cells A549; assay: Cell viability test (Resazurin), A549 cells; design: evaluation of ability to inhibit cell growth activity (IC50): scale not given here
Protocol: as §1

[9] = Homo sapiens, U-87 MG, 48 h, 0.1% FCS, Resazurin, read-out: inhibitory concentrations of cell growth activity IC50
[10] = Homo sapiens, U-87 MG, grade of the IC50 of Table 2, read-out: evaluation of ability to inhibit cell growth activity (IC50)
[11] = Homo sapiens, MDA-MB-468, 48 h, MDA-MB-468 cells, 48 hours, 0.1% FCS, Resazurin, read-out: inhibitory concentrations of cell growth activity IC50
[12] = Homo sapiens, MDA-MB-468, MDA-MB-468 cells, grade of the IC50 of Table 2, read-out: evaluation of ability to inhibit cell growth activity (IC50)
[13] = Homo sapiens, MDA-MB-231, 48 h, MDA-MB-231 cells, 48 hours, 0.1% FCS, Resazurin, read-out: inhibitory concentrations of cell growth activity IC50
[14] = Homo sapiens, MDA-MB-231, MDA-MB-231 cells, grade of the IC50 of Table 2, read-out: evaluation of ability to inhibit cell growth activity (IC50)
[15] = Homo sapiens, Mahlavu, 48 h, 0.1% FCS, Resazurin, read-out: inhibitory concentrations of cell growth activity IC50
[16] = Homo sapiens, Mahlavu, grade of the IC50 of Table 2, read-out: evaluation of ability to inhibit cell growth activity (IC50)
[17] = Homo sapiens, U-937, 48 h, U937 cells, 48 hours, 0.1% FCS, Resazurin, read-out: inhibitory concentrations of cell growth activity IC50
[18] = Homo sapiens, U-937, U937 cells, grade of the IC50 of Table 2, read-out: evaluation of ability to inhibit cell growth activity (IC50)
[19] = Homo sapiens, SW480, 48 h, SW480 cells, 48 hours, 0.1% FCS, Resazurin, read-out: inhibitory concentrations of cell growth activity IC50
[20] = Homo sapiens, SW480, SW480 cells, grade of the IC50 of Table 2, read-out: evaluation of ability to inhibit cell growth activity (IC50)
[21] = Chlorocebus sabaeus, Vero, 48 h, 0.1% FCS, Resazurin, read-out: inhibitory concentrations of cell growth activity IC50
[22] = Chlorocebus sabaeus, Vero, grade of the IC50 of Table 2, read-out: evaluation of ability to inhibit cell growth activity (IC50)
[23] = Homo sapiens, A549, 48 h, A549 cells, 48 hours, 0.1% FCS, Resazurin, read-out: inhibitory concentrations of cell growth activity IC50
[24] = Homo sapiens, A549, A549 cells, grade of the IC50 of Table 2, read-out: evaluation of ability to inhibit cell growth activity (IC50)
[25] = 48 hours, 0.1% FCS, Resazurin, read-out: inhibitory concentrations of cell growth activity IC50
[26] = grade of the IC50 of Table 2, read-out: evaluation of ability to inhibit cell growth activity (IC50)
[27] = MDA-MB-468 cells, 48 hours, 0.1% FCS, Resazurin, read-out: inhibitory concentrations of cell growth activity IC50
[28] = MDA-MB-468 cells, grade of the IC50 of Table 2, read-out: evaluation of ability to inhibit cell growth activity (IC50)
[29] = MDA-MB-231 cells, 48 hours, 0.1% FCS, Resazurin, read-out: inhibitory concentrations of cell growth activity IC50
[30] = MDA-MB-231 cells, grade of the IC50 of Table 2, read-out: evaluation of ability to inhibit cell growth activity (IC50)
[31] = U937 cells, 48 hours, 0.1% FCS, Resazurin, read-out: inhibitory concentrations of cell growth activity IC50
[32] = U937 cells, grade of the IC50 of Table 2, read-out: evaluation of ability to inhibit cell growth activity (IC50)
[33] = SW480 cells, 48 hours, 0.1% FCS, Resazurin, read-out: inhibitory concentrations of cell growth activity IC50
[34] = SW480 cells, grade of the IC50 of Table 2, read-out: evaluation of ability to inhibit cell growth activity (IC50)
[35] = A549 cells, 48 hours, 0.1% FCS, Resazurin, read-out: inhibitory concentrations of cell growth activity IC50
[36] = A549 cells, grade of the IC50 of Table 2, read-out: evaluation of ability to inhibit cell growth activity (IC50)

IC50 [1, 25]	IC50 [1, 26]	IC50 [2, 27]	IC50 [2, 28]	IC50 [3, 29]	IC50 [3, 30]	IC50 [4, 25]	IC50 [4, 26]	IC50 [5, 31]	IC50 [5, 32]	IC50 [6, 33]	IC50 [6, 34]	IC50 [8, 35]	IC50 [8, 36]	Compound	IC50 [1, 9]	IC50 [1, 10]	IC50 [2, 11]	IC50 [2, 12]	IC50 [7, 25]	IC50 [7, 26]	further results
103 µM	64 to 256 µM	58.3 µM	16 to 64 µM	59.4 µM	16 to 64 µM	> 256 µM	> 256 µM	32.5 µM	16 to 64 µM	67.2 µM	64 to 256 µM	198 µM	64 to 256 µM	CC(C)=C[C@H](O)C[C@@H](C)[C@H]1CC[C@@]2(C)[C@@H]3[C@@H](O[C@@H]4O[C@H](CO)[C@@H](O)[C@H](O)[C@H]4O)C=C4[C@@H](CC[C@H](O)C4(C)C)[C@]3(C=O)CC[C@]12C [Compound 13]	–	–	–	–	> 256 µM	> 256 µM	–
58.5 µM	16 to 64 µM	39.3 µM	16 to 64 µM	32.8 µM	16 to 64 µM	> 256 µM	> 256 µM	19.8 µM	16 to 64 µM	64.2 µM	64 to 256 µM	171 µM	64 to 256 µM	C[C@H](C/C=C/C(C)(C)O)[C@H]1CC[C@@]2(C)[C@@H]3[C@@H](O[C@@H]4O[C@H](CO)[C@@H](O)[C@H](O)[C@H]4O)C=C4[C@@H](CC[C@H](O)C4(C)C)[C@]3(C=O)CC[C@]12C [Compound 14]	–	–	–	–	> 256 µM	> 256 µM	–

Second part, the molecule before the results:

Compound	IC50 [1, 25]	IC50 [1, 26]	IC50 [2, 27]	IC50 [2, 28]	IC50 [3, 29]	IC50 [3, 30]	IC50 [4, 25]	IC50 [4, 26]	IC50 [5, 31]	IC50 [5, 32]	IC50 [6, 33]	IC50 [6, 34]	IC50 [8, 35]	IC50 [8, 36]	IC50 [1, 9]	IC50 [1, 10]	IC50 [2, 11]	IC50 [2, 12]	IC50 [7, 25]	IC50 [7, 26]	further results
CC(=O)O[C@@H](C=C(C)C)C[C@@H](C)[C@H]1CC[C@@]2(C)[C@@H]3[C@@H](O)C=C4[C@@H](CC[C@H](O)C4(C)C)[C@]3(C=O)CC[C@]12C [Compound 10]	–	–	–	–	–	–	–	–	–	–	–	–	–	–	10.7 µM	8 to 16 µM	20.3 µM	16 to 64 µM	–	–	evaluation of ability to inhibit cell growth activity (IC50) ([1]; grade of the IC50 of Table 2): ◯; IC50 [3, 13]: 10.7 µM; IC50 [3, 14]: 8 to 16 µM; evaluation of ability to inhibit cell growth activity (IC50) ([3]; MDA-MB-231 cells, grade of the IC50 of Table 2): ◯; IC50 [4, 15]: 19.4 µM; IC50 [4, 16]: 16 to 64 µM; IC50 [5, 17]: 5.92 µM; IC50 [5, 18]: < 8 µM; IC50 [6, 19]: 17.9 µM; IC50 [6, 20]: 16 to 64 µM; IC50 [7, 21]: 19.2 µM; IC50 [7, 22]: 16 to 64 µM; evaluation of ability to inhibit cell growth activity (IC50) ([8]; A549 cells, grade of the IC50 of Table 2): ◯; IC50 [8, 23]: 9.81 µM; IC50 [8, 24]: 8 to 16 µM
CC(C)=CC(=O)C[C@@H](C)[C@H]1CC[C@@]2(C)[C@@H]3[C@@H](O)C=C4[C@@H](CC[C@H](O)C4(C)C)[C@]3(C=O)CC[C@]12C [Compound 11]	–	–	–	–	–	–	–	–	–	–	–	–	–	–	> 256 µM	> 256 µM	> 256 µM	> 256 µM	–	–	IC50 [3, 13]: > 256 µM; IC50 [3, 14]: > 256 µM; IC50 [4, 15]: > 256 µM; IC50 [4, 16]: > 256 µM; IC50 [5, 17]: 84.2 µM; IC50 [5, 18]: 64 to 256 µM; IC50 [6, 19]: > 256 µM; IC50 [6, 20]: > 256 µM; IC50 [7, 21]: > 256 µM; IC50 [7, 22]: > 256 µM; IC50 [8, 23]: > 256 µM; IC50 [8, 24]: > 256 µM
CC(C)=C[C@@H](C[C@@H](C)[C@H]1CC[C@@]2(C)[C@@H]3[C@@H](O)C=C4[C@@H](CC[C@H](O)C4(C)C)[C@]3(C=O)CC[C@]12C)O[C@@H]1O[C@H](CO)[C@@H](O)[C@H](O)[C@H]1O [Compound 12]	49 µM	16 to 64 µM	56.5 µM	16 to 64 µM	41.7 µM	16 to 64 µM	70.3 µM	64 to 256 µM	58.6 µM	16 to 64 µM	98.6 µM	64 to 256 µM	100 µM	64 to 256 µM	–	–	–	–	124 µM	64 to 256 µM	–
